In patent publication US20230085307A1, “PYRIDAZINONE COMPOUND AND HERBICIDE” (NISSAN CHEMICAL CORPORATION, priority 2019, published 2023):

Columns and labels:
Japanese bulrush [1] = test: Test Example 1: herbicidal activity, application before weed generation under submerged conditions (Table 16, symbol B); type: in vivo, Japanese bulrush (Schoenoplectus juncoides); details: 320 g/ha applied herbicide
Procedure, shortened: (§1)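 Emulsion formulation, water-diluted to set dose, was put onto the flooded surface (4 cm depth, alluvial soil) the same day weeds were sown and 2.5-leaf rice transplanted. After 3 weeks at 25-30 °C under glass, each species was rated 0 (≤5% kill) to 5 (≥90% kill).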

oval-leafed pondweed [2] = test: Test Example 1: herbicidal activity, application before weed generation under submerged conditions (Table 16, symbol C); type: in vivo, oval-leafed pondweed (Monochoria vaginalis); details: 320 g/ha applied herbicide
Procedure, shortened: as §1

Japanese bulrush [3] = test: Test Example 2: herbicidal activity, application during weed generation under submerged conditions (Table 17, symbol B); type: in vivo, Japanese bulrush (Schoenoplectus juncoides); details: AAH 320 g/ha; application during weed generation, submerged conditions
Procedure, shortened: (§2)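 Wagner pot, alluvial soil, 4 cm flood; mixed sowing of all species; greenhouse 25° C.–30° C. Emulsifiable formulation, water-diluted to predetermined dose, applied to paddy water at 1–2 leaf stage. Effect rated at 3 wk using the earlier test's scoring criteria.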

oval-leafed pondweed [4] = test: Test Example 2: herbicidal activity, application during weed generation under submerged conditions (Table 17, symbol C); type: in vivo, oval-leafed pondweed (Monochoria vaginalis); details: AAH 320 g/ha; application during weed generation, submerged conditions
Procedure, shortened: as §2

rice flat sedge = test: Test Example 3: herbicidal effect by foliage application, Wagner pot (Table 18, symbol E); type: in vivo, rice flat sedge (Cyperus iria); details: 320 g/ha
Procedure, shortened: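 Plants were sown in alluvial soil held under 0.1–0.5 cm standing water and grown 14 days in a greenhouse at 25–30 °C. An emulsifiable formulation, water-diluted to the set dose, was then sprayed onto the foliage, and effects were scored three weeks later using previously defined criteria.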

green foxtail [5] = test: Test Example 4: herbicidal effect by soil treatment (Table 19, symbol G); type: in vivo, green foxtail (Setaria viridis); details: AAH 320 g/ha
Procedure, shortened: (§3)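 Pre-emergence style soil spray: seeds under ~1.5 cm sterilized diluvial soil received a uniform coat of emulsion diluted to the predetermined herbicide amount. Greenhouse 25–30° C; readout at week three on previously defined criteria.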

wild oat = test: Test Example 4: herbicidal effect by soil treatment (Table 19, symbol I); type: in vivo, wild oat (Avena fatua); details: AAH 320 g/ha
Procedure, shortened: as §3

Italian ryegrass = test: Test Example 4: herbicidal effect by soil treatment (Table 19, symbol K); type: in vivo, Italian ryegrass (Lolium multiflorum); details: AAH 320 g/ha
Procedure, shortened: as §3

windgrass [6] = test: Test Example 4: herbicidal effect by soil treatment (Table 19, symbol L); type: in vivo, windgrass (Apera spica-venti); details: AAH 320 g/ha
Procedure, shortened: as §3

velvetleaf = test: Test Example 4: herbicidal effect by soil treatment (Table 19, symbol M); type: in vivo, velvetleaf (Abutilon theophrasti); details: AAH 320 g/ha
Procedure, shortened: as §3

persian speedwell = test: Test Example 4: herbicidal effect by soil treatment (Table 19, symbol R); type: in vivo, Persian speedwell (Veronica persica); details: AAH 320 g/ha
Procedure, shortened: as §3

southern crabgrass = test: Test Example 5: herbicidal effect by foliage application, plastic box (Table 20, symbol F); type: in vivo, southern crabgrass (Digitaria ciliaris); details: foliage application, AAH 320 g/ha, three weeks after application
Procedure, shortened: (§4)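 Plants were sown into sterilized diluvial soil under about 1.5 cm cover and kept in a greenhouse at 25° C. to 30° C. Fourteen days on, foliage received an even spray of the diluted emulsion. Herbicidal or crop effect was judged three weeks afterwards.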

green foxtail [7] = test: Test Example 5: herbicidal effect by foliage application, plastic box (Table 20, symbol G); type: in vivo, green foxtail (Setaria viridis); details: foliage application, AAH 320 g/ha, three weeks after application
Procedure, shortened: as §4

windgrass [8] = test: Test Example 5: herbicidal effect by foliage application, plastic box (Table 20, symbol L); type: in vivo, windgrass (Apera spica-venti); details: foliage application, AAH 320 g/ha, three weeks after application
Procedure, shortened: as §4

lambsquarters = test: Test Example 5: herbicidal effect by foliage application, plastic box (Table 20, symbol O); type: in vivo, lambsquarters (Chenopodium album); details: foliage application, AAH 320 g/ha, three weeks after application
Procedure, shortened: as §4

chickweed = test: Test Example 5: herbicidal effect by foliage application, plastic box (Table 20, symbol P); type: in vivo, common chickweed (Stellaria media); details: foliage application, AAH 320 g/ha, three weeks after application
Procedure, shortened: as §4

SMILES | Herbicidal effect on B: Japanese bulrush (grade 0-5) (Japanese bulrush [1]) | Herbicidal effect on C: oval-leafed pondweed (grade 0-5) (oval-leafed pondweed [2]) | herbicidal effect rating, B: Japanese bulrush (Japanese bulrush [3]) | herbicidal effect rating, C: oval-leafed pondweed (oval-leafed pondweed [4]) | herbicidal effect on E (rice flat sedge), rating 0-5 (rice flat sedge) | G: green foxtail, herbicidal effect rating (green foxtail [5]) | I: wild oat, herbicidal effect rating (wild oat) | K: Italian ryegrass, herbicidal effect rating (Italian ryegrass) | L: windgrass, herbicidal effect rating (windgrass [6]) | M: velvetleaf, herbicidal effect rating (velvetleaf) | R: persian speedwell, herbicidal effect rating (persian speedwell) | F: southern crabgrass, herbicidal effect (southern crabgrass) | G: green foxtail, herbicidal effect (green foxtail [7]) | L: windgrass, herbicidal effect (windgrass [8]) | O: lambsquarters, herbicidal effect (lambsquarters) | P: chickweed, herbicidal effect (chickweed)
CCCC(=O)Oc1c(C)nn(C)c(=O)c1-c1c(-c2ccc(C(C)C)cc2)sc2ccccc12 [1-126] | 3 (Herbicidal rate of 40% or more and less than 70%) | 3 (Herbicidal rate of 40% or more and less than 70%) | 3 (Herbicidal rate of 40% or more and less than 70%) | 1 (Herbicidal rate of 5% or more and less than 20%) | 4 (Herbicidal rate of 70% or more and less than 90%) | 0 (Herbicidal rate of 5% or less (almost no effect)) | 0 (Herbicidal rate of 5% or less (almost no effect)) | 3 (Herbicidal rate of 40% or more and less than 70%) | 0 (Herbicidal rate of 5% or less (almost no effect)) | 0 (Herbicidal rate of 5% or less (almost no effect)) | 3 (Herbicidal rate of 40% or more and less than 70%) | 1 (Herbicidal rate of 5% or more and less than 20%) | 2 (Herbicidal rate of 20% or more and less than 40%) | 0 (Herbicidal rate of 5% or less (almost no effect)) | 4 (Herbicidal rate of 70% or more and less than 90%) | 5 (Herbicidal rate of 90% or more (almost completely withered))
COCc1ccc(-c2sc3ccccc3c2-c2c(O)c(C)nn(C)c2=O)cc1 [1-131] | 1 (Herbicidal rate of 5% or more and less than 20%) | 0 (Herbicidal rate of 5% or less (almost no effect)) | 1 (Herbicidal rate of 5% or more and less than 20%) | 3 (Herbicidal rate of 40% or more and less than 70%) | 5 (Herbicidal rate of 90% or more (almost completely withered)) | 5 (Herbicidal rate of 90% or more (almost completely withered)) | 2 (Herbicidal rate of 20% or more and less than 40%) | 5 (Herbicidal rate of 90% or more (almost completely withered)) | 2 (Herbicidal rate of 20% or more and less than 40%) | 5 (Herbicidal rate of 90% or more (almost completely withered)) | 5 (Herbicidal rate of 90% or more (almost completely withered)) | 5 (Herbicidal rate of 90% or more (almost completely withered)) | 5 (Herbicidal rate of 90% or more (almost completely withered)) | 4 (Herbicidal rate of 70% or more and less than 90%) | 5 (Herbicidal rate of 90% or more (almost completely withered)) | 5 (Herbicidal rate of 90% or more (almost completely withered))
